Measurements from patent US20030134824A1, “Beta-cyclodextrin dimers and phthalocyanines and uses thereof” (priority 2001, published 2003).

Tests used:
[1] = Binding of BNS to β-cyclodextrin dimers by fluorescence titration; conditions: water, ca. 25° C.
Description: Binding constants for a few of the possible pairs were determined by a fluorescence competition method previously used for cyclodextrin dimers, competing the substrate of interest with 2-(p-tert-butylanilino)naphthalene-6-sulfonic acid 22, (termed BNS, Breslow et al. 1989). [drawing 26]
BNS is fluorescent when bound into a hydrophobic cavity such as that of a cyclodextrin, but only weakly fluorescent in water solution. Only the sulfonated phthalocyanines were soluble enough for this method.
The binding constant of BNS 22 to each dimer was determined as previously (Breslow et al. 1989, Ruebner et al. 1999) by titrating BNS into a dimer solution in a fluorescence cell, then exciting this solution at 330 nm and measuring the fluorescent emission at 438 nm. The binding constant of phthalocyanine to dimer was measured by titration of BNS into a 1:1 mixture of dimer and phthalocyanine. […] The binding constant of BNS to each dimer is given by K=intercept/slope, and the binding constant of the phthalocyanine can be calculated as KI=(K/K′−1)/[I], where K′ is the apparent binding constant of BNS to the dimer in presence of phthalocyanine, and [I] is the concentration of phthalocyanine (Ruebner et al. 1996). […]
The binding constant for BNS to cyclodextrin dimer 21 was determined by the fluorescence emission method. […] The area under the peak between 400 and 500 nm was measured for each addition. […]

[2] = Photochemical cleavage of the dimers by bound phthalocyanines, monitored by 1H NMR; assay type: physicochemical; conditions: dimer 2.5 mM, photosensitizer 0.14 mM, 5% DMSO-d6 in D2O, O2, light >540 nm, 25° C.
Description: All of the photocleavage reactions were carried out using the same apparatus, as described previously (U.S. Ser. No. 09/352,529, filed Jul. 13, 1999, now allowed; Ruebner et al. 1999). A halogen lamp (50 W) was set up with a 540 nm cut-off filter and a focusing lens. The NMR tube in which the reactions were run was placed in the most strongly focused area, and oxygen was bubbled continuously through the solution while the photocleavage reactions were run. To monitor the reactions, ^1H NMR's were taken at regular intervals, whereby the disappearance of the alkene peaks and the appearance of the single formyl peak could be observed.
The dimers were at a concentration of 2.5 mM while the photosensitizers were at 0.14 mM in 5% DMSO-d6 in D2O. Here dimer 21 was cleaved using phthalocyanine 11. It can clearly be seen that the amount of alkene (doublet at ˜6.2 ppm) decreases and the formyl peak (singlet at ˜8.4 ppm) appears as the reaction progresses, and that no other peaks are seen in this area. […]
To a solution of β-cyclodextrin dimer 17 (5.9 mg, 2.35×10^−6 mol) and potassium carbonate (2 mg) in D2O (1.00 mL) was added a 3 mM solution of phthalocyanine 6 (0.17 mg, 1.50×10^−7 mol) in DMSO-d6 (50 μL). […] The reaction was monitored by ^1H NMR, by observance of the disappearance of the alkene peaks and the appearance of the formyl peak. […]

[3] = Microcalorimetric titration with p-tert-butylbenzoic acid; assay type: binding
Description: β-cyclodextrin (CD) monomer 23 (6.4 mg, 0.005 mmol) was dissolved in 0.20 M pH 9.0 Na2CO3/NaHCO3 buffer (5.00 mL) to make a 1.0 mM solution. p-tert-Butylbenzoic acid (11.0 mg, 0.062 mmol) was dissolved in 6.16 mL of the same buffer to make a 10.0 mM solution. Both solutions were degassed under reduced pressure with a sonicator for 5 minutes immediately prior to the binding study. The β-CD monomer 23 solution (2.50 mL) was put into the sample cell compartment of an Omega microcalorimeter, whereas the p-tert-butyl-benzoic acid was loaded in a 250 μL syringe and then assembled onto the calorimeter. The system was equilibrated until RMS error was less than 5×10^−3 with the syringe spinning at 400 rpm. The p-tert-butylbenzoic acid solution was then injected into the cell in 25 injections (10 μL, 7 seconds per injection). […] Injection data were automatically collected by the computer, and the data was analyzed by ORIGIN software with the single-binding-site model. […]
β-Cyclodextrin (4.0 mg, 0.0035 mmol) was dissolved in 0.20 M pH 9.0 Na2CO3/NaHCO3 buffer (3.53 mL) to make a 1.0 mM solution. p-tert-butyl-benzoic acid (10.0 mg, 0.056 mmol) was dissolved in 5.60 mL of the same buffer to make a 10.0 mM solution. […] Injection data were automatically collected by the computer, and the data was analyzed by ORIGIN software with the single-binding-site model. […]

Row | SMILES | binding constant of BNS to the dimer [1] | time for 50% cleavage of the dimer by phthalocyanine 6 [2] | time for 50% cleavage of the dimer by phthalocyanine 14 [2] | binding constant with 4-tert-butylbenzoic acid [3]
1 | CNC(=O)CCCS/C=C\SCCCC(=O)NC [Dimer 18] | 418000 M⁻¹ | 55 min | 6 min | 
2 | OC[C@H]1O[C@@H]2O[C@H]3[C@H](O)[C@@H](O)[C@@H](O[C@H]4[C@H](O)[C@@H](O)[C@@H](O[C@H]5[C@H](O)[C@@H](O)[C@@H](O[C@H]6[C@H](O)[C@@H](O)[C@@H](O[C@H]7[C@H](O)[C@@H](O)[C@@H](O[C@H]8[C@H](O)[C@@H](O)[C@@H](O[C@H]1[C@H](O)[C@H]2O)O[C@@H]8CO)O[C@@H]7CO)O[C@@H]6CO)O[C@@H]5CO)O[C@@H]4CO)O[C@@H]3CO [β-cyclodextrin] |  |  |  | 1.7×10^4 M^−
